This is an account of results in paper PMC12119672, “Development and evaluation of [^11C]DPA-813 and [^18F]DPA-814: novel TSPO PET tracers insensitive to human single nucleotide polymorphism rs6971” (European Journal of Nuclear Medicine and Molecular Imaging, 2025).

One data set addresses T1, rat TSPO (Rattus norvegicus, UniProt P16257).
T1 construct: Heart of male Wistar derived rats weighing 175 ± 25 g are used to prepare peripheral benzodiazepine membrane receptors [TSPO]; tissue Eurofins Panlabs Discovery Services assay #226700; host or cells: rat heart (male Wistar derived)
The data set can be described thus: Competitive binding to rat TSPO vs [3H]PK 11195 (Eurofins assay #226700, rat heart membranes). Conditions: vs DPA-713 / DPA-714. How it is done: Binding affinities (Ki) to wild-type (WT) and A147T human TSPO were assessed using a previously published method. HEK-293T cells were stably transfected with WT and A147T TSPO. Membranes were isolated from each cell line using an Ultra-Turrax hand-held homogeniser. These cells have been previously validated as an in vitro model for low- and high-affinity TSPO binding. […] Non-specific binding was determined using a saturating concentration (1 µM) of non-tritiated PK 11195. This non-specific binding contributed less than 10% of total binding. Reactions were halted by filtering through a 96-well glass-fibre filter plate (Millipore), followed by eight washes with ice-cold 50 mM Tris HCl. Microscint 0 was added to the plate and resultant radioactivity-related photons were collected by a Microbeta 2450 (PerkinElmer). Ki values were fit to a competition binding curve fit on non-specific binding-corrected data using GraphPad Prism 10.0 (GraphPad). Results are presented as mean ± standard error of the mean (SEM) from at least three independent experiments. Binding affinities (Ki) to rat TSPO were measured in duplicate by Eurofins Panlabs Discovery Services (assay #226700) (Supplementary Fig. 12). Single-dose (10 µM) off-target in vitro screening was performed in duplicate by Eurofins Panlabs Discovery Services (Supplementary Table 5).
Supplementary Figure 12 Dose-response curves and binding affinities of DPA-813 and DPA-814 showing competitive binding to rat TSPO vs [^3H]PK 11195. Method from Eurofins: Heart of male Wistar derived rats weighing 175 ± 25 g are used to prepare peripheral benzodiazepine membrane receptors [TSPO] in modified Tris-HCl buffer pH 7.5. A 0.25 mg aliquot is incubated with 0.3 nM [^3H]PK 11195 for 15 minutes at 25 °C. Non-specific binding is estimated in the presence of 100 μM Dipyridamole. Membranes are filtered and washed, the filters are then counted to determine [^3H]PK 11195 specifically bound.

Data set [1] in a line: Ex vivo biodistribution in wild-type rats. The arrangement: species or system rat. The settings on record: i.v. How it is done: Wistar/RccHan (WIST) rats from Inotiv, the Netherlands, received intravenous injections via a tail vein catheter of either [^11C]DPA-813 (30–50 MBq) or [^18F]DPA-814 (20–30 MBq). The rats were euthanized at 5, 15, and 45 min post-injection (n = 4 per time point). Blood, heart, lungs, liver, spleen, kidney, urine, bone, brain, duodenum, small intestine, skin, and muscle were collected, weighed, and their radioactivity measured using a Wizard Gamma counter 1470 or 2480 (Wallac/PerkinElmer, Waltham, MA, USA). Entire organs were collected, except for larger organs like the liver and lungs, where only a portion was dissected. The radioactivity uptake in each organ was expressed as the percentage of the injected dose per gram of tissue (%ID/g).

A short description of data set [2]: Ex vivo metabolite analysis (plasma and brain) in wild-type rats. The arrangement: species or system rat. The settings on record: i.v. Here is the method: Metabolite analysis was conducted following the method outlined in a previous study. Wistar/RccHan (WIST) rats (Inotiv, the Netherlands) received intravenous injections of either [^11C]DPA-813 (30–50 MBq) or [^18F]DPA-814 (20–30 MBq). Rats were euthanized at 5, 15, and 45 min post-injection (n = 4 per time point). Plasma was separated from blood then processed through a C18 Sep-Pak (Waters, Milford, MA, USA). After washing with 3 mL of water to isolate the polar fraction, the non-polar fraction was eluted using 2 mL of methanol and 1 mL of water and subsequently analyzed by HPLC. The brain tissue was collected and homogenized in a mixture of MeCN and H2O (50/50, 4 mL) before centrifugation (5 min, 4000 rpm, 20 °C, Hettich Universal 32). The obtained supernatant was separated from the precipitate and analyzed via HPLC. Analytical HPLC was performed using a Dionex UltiMate 3000 HPLC system equipped with Chromeleon software (version 6.8), utilizing a Gemini C18 5-µm (10 × 250 mm) column (Phenomenex, Torrance, CA, USA). All fractions were assessed for radioactivity using a Wizard Gamma counter 1470 or 2480 (Wallac/PerkinElmer, Waltham, MA, USA).

In another data set the test system is TSPO in human MS tissues. The experiment in a line: Autoradiography on genotyped human MS brain tissue (HAB, MAB, LAB). Type of data set: binding. From the text:
Brain tissues from MS patients (n = 7) were used in this study and were obtained from the MS centre of the Amsterdam University Medical Centers (AUMC). For some patient material, several brain tissues were available. The MS centre received permission from the Ethical Committee of the AUMC (Amsterdam, The Netherlands) to perform autopsies for tissue use and access to medical records for research purposes. All patients and controls, or their next of kin, had given informed consent for autopsy and use of brain tissue for research purposes.
TSPO rs6971 SNP was determined with a Taqman assay (C_2512465_20, ThermoFisher Scientific, The Netherlands). DNA was isolated from human MS brain tissue cryosections using a QIAmp mini kit from Qiagen according to the manufacturer’s recommendation. The concentration of the isolated DNA was determined on a nanodrop (NanoVue Plus, Biochrom). DNA concentration ranged from 45 to 246 µg/mL. QPCR was performed on a QuantStudio (Applied Biosystems, The Netherlands). Synthetic DNA (300 bp) for the two TSPO SNP alleles, rs6971-A, and rs6971-G, was used as a control for the Taqman assay. DNA samples were diluted 1/100 in milliQ water, and 4.5 µL was used for the QPCR. Control DNA sequences were reconstituted in 10 ng/mL in milliQ water. The final QPCR solution contained 5 µL TaqPath proAmp master mix (ThermoFisher Scientific, The Netherlands), 0.5 µL Taqman SNP, and 4.5 µL DNA. Results of the Taqman assay are summarised in Supplementary Tables 4 and Supplementary Fig. 2.
Human MS tissue cryosections (20 μm) were mounted on glass slides, air-dried, and stored at − 80 °C until needed. Prior to use, the sections were washed three times in PBS for 5 min each, then dried under an airflow. […] For blocking experiments, tissue sections were co-incubated with PK 11195 (10 µM) and the tracer. After incubation, sections were washed for 90 s three times each in ice-cold PBS and then dipped in deionized water twice. The sections were air-dried and exposed to a phosphor screen BAS-IP SR 2025 (General Electric, Eindhoven, The Netherlands). Phosphor screens were subsequently imaged using a Typhoon FLA 7000 imager (General Electric, Eindhoven, The Netherlands), and signal intensity was quantified using ImageLab software (BioRad, Lunteren, The Netherlands).

The test system of data set [3] is EAE rat model (spinal cord). The experiment in a line: PET imaging in the EAE rat model. Type of data set: in vivo. Conditions: for higher uptake (AUC of time activity curve) in the spinal cord of EAE rats compared to CFA control: dynamic PET 60 min, peak of clinical symptoms.

Structures are written as SMILES. Values joined by “and” are separate entries in the source; they are usually repeats but may differ in a detail not shown here. Identical values can stand only once.

With `Cc1cc(C)n2nc(-c3ccc(OCC[18F])cc3)c(CC(=O)N(C)c3ccccc3)c2n1` [[^18F]DPA-814], at rat TSPO, the “higher affinity to rat TSPO compared to the parent compound” value is 35 fold. In data set [1] (5 min post-injection), the “Biodistribution, Blood” value is recorded as 0.41 ± 0.2 %ID/g; the “Biodistribution, Bone” value was found to be 0.27±0.1 %ID/g; the “Biodistribution, Brain” value came out at 0.25 ± 0.03 %ID/g; the “Biodistribution, Duodenum” value is reported as 1.44±0.1 %ID/g. Also, in data set [1] (5 min post-injection), the “Biodistribution, Heart” value amounted to 3.31±0.3 %ID/g; the “Biodistribution, Kidney” value is recorded as 3.81±0.5 %ID/g; the “Biodistribution, Liver” value is recorded as 1.82±0.5 %ID/g; the “Biodistribution, Lungs” value turned out to be 21.91±1. %ID/g. In data set [1] (5 min post-injection), the “Biodistribution, Skin” value worked out at 0.09±0.0 %ID/g; the “Biodistribution, Small intestine” value turned out to be 0.92±0.1 %ID/g; the “Biodistribution, Tail” value was 6.89±9.8 %ID/g; the “Biodistribution, Urine” value came out at 0.01±0.0 %ID/g. Further, in data set [1] (5 min post-injection), the “Biodistribution, muscle” value is given as 0.05±0.0 %ID/g and the “Biodistribution, spleen” value came out at 3.00±0.6 %ID/g. Moreover, in data set [1] (15 min post-injection), the “Biodistribution, Blood” value turned out to be 0.31±0.1 %ID/g; the “Biodistribution, Bone” value came out at 0.29±0.1 %ID/g; the “Biodistribution, Brain” value stood at 0.28±0.0 %ID/g; the “Biodistribution, Duodenum” value amounted to 1.71±0.2 %ID/g. Also, in data set [1] (15 min post-injection), the “Biodistribution, Heart” value was 4.39±0.2 %ID/g; the “Biodistribution, Kidney” value was 4.59±0.6 %ID/g; the “Biodistribution, Liver” value came to 2.56 ± 0.2 %ID/g; the “Biodistribution, Lungs” value came to 24.43±2. %ID/g. Besides, in data set [1] (15 min post-injection), the “Biodistribution, Skin” value came to 0.12±0.1 %ID/g; the “Biodistribution, Small intestine” value stood at 1.26±0.1 %ID/g; the “Biodistribution, Tail” value is given as 0.70±0.2 %ID/g; the “Biodistribution, Urine” value is given as 0.01±0.0 %ID/g. In data set [1] (15 min post-injection), the “Biodistribution, muscle” value worked out at 0.07±0.0 %ID/g and the “Biodistribution, spleen” value amounted to 4.85±0.2 %ID/g. For the same compound, in data set [1] (45 min post-injection), the “Biodistribution, Blood” value worked out at 0.15 ± 0.01 %ID/g; the “Biodistribution, Bone” value is listed as 0.22±0.0 %ID/g; the “Biodistribution, Brain” value is 0.20 ± 0.02 %ID/g; the “Biodistribution, Duodenum” value amounted to 1.43±0.1 %ID/g. Also, in data set [1] (45 min post-injection), the “Biodistribution, Heart” value is listed as 4.05±0.3 %ID/g; the “Biodistribution, Kidney” value is 4.10±0.2 %ID/g; the “Biodistribution, Liver” value came out at 1.97±0.4 %ID/g; the “Biodistribution, Lungs” value is 18.05±3. %ID/g. Moreover, in data set [1] (45 min post-injection), the “Biodistribution, Skin” value amounted to 0.12±0.0 %ID/g; the “Biodistribution, Small intestine” value was 1.23±0.2 %ID/g; the “Biodistribution, Tail” value is 1.30±0.5 %ID/g; the “Biodistribution, Urine” value was found to be 0.08±0.1 %ID/g. Besides, in data set [1] (45 min post-injection), the “Biodistribution, muscle” value came out at 0.08±0.0 %ID/g and the “Biodistribution, spleen” value is 5.45±1.6 %ID/g. In addition, in data set [2] (5 min post-injection), the “Brain, Parent (intact tracer)” value is recorded as 99.5 ± 0.2% and the “Plasma, Parent (Intact tracer)” value is 88.1 ± 8.5%. For the same compound, in data set [2] (15 min post-injection), the “Brain, Parent (intact tracer)” value stood at 99.5 ± 0.3% and the “Plasma, Parent (Intact tracer)” value amounted to 89.4 ± 0.9%. In data set [2] (45 min post-injection), the “Brain, Parent (intact tracer)” value is recorded as 99.3 ± 0.3%; the “Plasma, Parent (Intact tracer)” value was 79.1 ± 6.6% and 79%. In addition, the “ratio of the binding quantifications [18F]DPA-814/[18F]DPA-714” value (from here on “ratio of the binding quantifications”) with TSPO in human MS tissues (HAB human MS tissue) is reported as 0.9 ± 0.1. Also, in the data set on TSPO in human MS tissues (LAB human MS tissue), the “ratio of the binding quantifications” value was 12.3 and 12. Also, the “ratio of the binding quantifications” value in the data set on TSPO in human MS tissues (MAB human MS tissue) was 1.5 ± 0.2. Besides, the “higher uptake (AUC of time activity curve) in the spinal cord of EAE rats compared to CFA control” value (“higher uptake … compared to CFA control” for short) in data set [3] stood at 21%.

For the compound `CCN(CC)C(=O)Cc1c(-c2ccc(O[11CH3])cc2)nn2c(C)cc(C)nc12` [[^11C]DPA-713, reference compound], the “higher difference EAE vs control compared with the fluorinated compound” value in data set [3] ([11C]DPA-813 vs [18F]DPA-814, [11C]DPA-713 vs [18F]DPA-714) was determined as 2.5 folds. The “higher uptake … compared to CFA control” value in data set [3] stood at 67%.

On to `CCN(CC)C(=O)Cc1c(-c2ccc(OCC[18F])cc2)nn2c(C)cc(C)nc12` [[^18F]DPA-714, reference compound], for which the “higher uptake … compared to CFA control” value in data set [3] was 27%.
